Measured values as given in patent US20240246905A1 (University of Leicester, priority 2021, published 2024).
In brackets after ≈: the same amount, converted by molar mass. Where two headings read alike, the source gives them in different places.

Columns and labels:
[1] = system: MRSA 252; experiment: MIC, broth micro-dilution; type: cell-based, Staphylococcus aureus; settings: Staphylococcus aureus, read-out: MIC
Protocol: (§1) E. coli DH5α, P. aeruginosa PA01 and the 53 S. aureus strains were recovered from frozen (−80° C.) glycerol (15% v/v) stocks on Lysogeny agar (LA)—Gram negative and trypticase soy agar (TSA)—plates at 37° C. for 24 hours. Single colonies were placed in either 3 mL Lysogeny broth (LB)—Gram negative or trypticase soy broth (TSB)—Gram positive and incubated at 37° C., 250 rpm for 18 hours.
(§2) Antibiotic MIC's were determined by a broth micro-dilution method according to Clinical Standard Laboratory Institute (CSLI) Guidelines (2017). Briefly, 96-well microplates, each containing 195 μL of the 1:2 dilution antibiotic in TSB, were inoculated with 5 μL of overnight cultured bacteria, diluted to give a starting bacterial concentration of 5×10^5 CFU/mL. The optical density of each well inoculated was recorded every 12 minutes over an 18 hour period at 37° C. The data from this was plotted in OriginPro8 (OriginLab) and sigmoidal curves fitted using the dose response function. Fitted values for each curve were used to calculate the MIC.

[2] = system: MSSA 476; experiment: MIC, broth micro-dilution; type: cell-based, Staphylococcus aureus
Protocol: as §1, §2

[3] = system: MRSA 252; experiment: Disc diffusion (Kirby-Bauer), zone of inhibition; type: cell-based, Staphylococcus aureus; settings: Staphylococcus aureus, 500 μg/mL, '/' = no zone, read-out: Zone of inhibition
Protocol: as §1
(§3) The antibiotic activity was determined using a Kirby-Bauer method according to Clinical Standard Laboratory Institute (CSLI) Guidelines (2017). Briefly, 180 μL of a 1 in 200 dilution (in LB or TSB) of overnight cultures of selected Gram negative and Gram positive bacteria were applied to an agar plate containing the solid growth medium, Mueller-Hinton agar (MHA). Sterile discs, inoculated with 50 μL of antibiotic, were first added to the agar plate before the plates were incubated for 24 hours at 37° C. Following incubation, the zone of inhibition (if it existed) was recorded.

[4] = system: MSSA 476; experiment: Disc diffusion (Kirby-Bauer), zone of inhibition; type: cell-based, Staphylococcus aureus; settings: 500 μg/mL, '/' = no zone; for zone of inhibition at 500 µg/mL: Staphylococcus aureus, read-out: Zone of inhibition
Protocol: as §1, §3

[5] = system: Staphylococcus aureus 15981; experiment: Disc diffusion (Kirby-Bauer), zone of inhibition; type: cell-based; settings: Staphylococcus aureus 15981, 500 μg/mL, '/' = no zone; for zone of inhibition at 500 µg/mL: read-out: Zone of inhibition
Protocol: as §1, §3

[6] = system: Pseudomonas aeruginosa PA01; experiment: Disc diffusion (Kirby-Bauer), zone of inhibition; type: cell-based; settings: 500 μg/mL, '/' = no zone
Protocol: as §1, §3

[7] = system: Escherichia coli DH5α; experiment: Disc diffusion (Kirby-Bauer), zone of inhibition; type: cell-based; settings: Escherichia coli DH5α; 500 μg/mL; '/' = no zone; read-out: Zone of inhibition
Protocol: as §1, §3

[8] = Staphylococcus aureus, MSSA, read-out: MIC

MIC [1] [µg/mL]	MIC [2, 8] [µg/mL]	MIC [2] [µg/mL]	Structure (SMILES)	zone of inhibition at 500 µg/mL [3] [mm]	zone of inhibition at 500 µg/mL [4] [mm]	zone of inhibition at 500 µg/mL [5] [mm]	zone of inhibition at 500 µg/mL [6] [mm]	zone of inhibition at 500 µg/mL [7] [mm]	Zone of inhibition [4] [mm]	Zone of inhibition [5] [mm]
117	210	–	[C-]#[N+]C=Cc1cc(OC)ccc1OC (mixture of isomers) [Compound 18, (E/Z)-2-(Isocyanovinyl)-1,4-dimethoxybenzene]	14	26	20	–	–	–	–
250 (≈ 1720 µM)	350 (≈ 2410 µM)	–	[C-]#[N+]/C=C/c1ccccc1O (single isomer, unassigned) [Compound 11, 2-(2-isocyanovinyl)phenol]	18	20	14	12	–	–	–
26 (≈ 218 µM)	23 (≈ 193 µM)	–	[C-]#[N+]c1ccc(O)cc1 [Compound 5, 4-Isocyanophenol]	26	30	16	26	18	–	–
137 (≈ 944 µM)	300 (≈ 2070 µM)	–	[C-]#[N+]C=Cc1cccc(O)c1 [Compound 10, 3-(2-Isocyanovinyl)phenol]	20	16	18	–	–	–	–
123 (≈ 702 µM)	187 (≈ 1070 µM)	–	[C-]#[N+]/C=C/c1cc(OC)ccc1O [Compound 12, (E)-2-(2-Isocyanovinyl)-4-methoxyphenol]	16	14	16	–	–	–	–
116 (≈ 720 µM)	400 (≈ 2480 µM)	–	[C-]#[N+]C=Cc1ccc(O)c(O)c1 [Compound 16, 4-(2-Isocyanovinyl)benzene-1,2-diol]	22	22	24	18	–	–	–
157 (≈ 518 µM)	176 (≈ 581 µM)	–	[C-]#[N+]C=Cc1cc(Br)c(O)c(Br)c1 [Compound 17, 2,6-Dibromo-4-(2-isocyanovinyl)phenol]	18	18	16	–	–	–	–
152 (≈ 643 µM)	291 (≈ 1230 µM)	–	[C-]#[N+]C=C(C)c1ccc(NS(C)(=O)=O)cc1 [Compound 24, N-(4-(1-Isocyanoprop-1-en-2-yl)phenyl)methanesulfonamie]	16	22	18	–	14	–	–
56 (≈ 285 µM)	144 (≈ 734 µM)	–	[C-]#[N+]C=Cc1cn(CC)c2ccccc12 [Compound 28]	26	22	22	20	–	–	–
63 (≈ 300 µM)	90 (≈ 428 µM)	–	[C-]#[N+]/C=C/c1cn(C(C)C)c2ccccc12 [Compound 29]	22	16	16	12	–	–	–
214 (≈ 866 µM)	350 (≈ 1420 µM)	–	[C-]#[N+]C=Cc1c[nH]c2cccc(Br)c12 [Compound 30, 4-Bromo-3-(2-isocyanovinyl)-1H-indole]	14	12	12	–	–	–	–
–	–	361 (≈ 1460 µM)	[C-]#[N+]C=Cc1c[nH]c2cccc(Br)c12 [Compound 31, 4-Bromo-3-(2-isocyanovinyl)-1H-indole]	–	–	–	–	–	12	12
32 (≈ 122 µM)	26 (≈ 99.1 µM)	–	[C-]#[N+]/C=C/c1ccc(NC(C)=O)cc1-c1ccccc1 [Compound 43, (E)-N-(6-(2-Isocyanovinyl)-(1,1-biphenyl)-3-yl)acetamide]	22	18	18	–	–	–	–
